Reference: US5187157A, “Peptide boronic acid inhibitors of trypsin-like proteases” (Du Pont Merck Pharmaceutical Company, priority 1988, dated 1993)

Key:
Human thrombin = target: T1, Human thrombin (Homo sapiens, UniProt P00734); test: Inhibition of Thrombin (Esterase Activity); type: biochemical; conditions: activity remaining 10 to 20 min after initiation
T1 construct: purchased R.Q.P. Laboratories, South Bend, IN Lot HT102
Experimental: (§1) In the Examples which follow, the hydrolytic activity of each enzyme is measured in both the presence and absence of inhibitor and the percent enzyme activity determined. […] A steady state is reached fairly rapidly and nears completion within 5 min. Activity is evaluated between 10-20 min after the components are mixed to insure that reaction components are at equilibrium. The lowest concentration of inhibitor tested is determined by the estimated concentration of enzyme. […] The maintenance of pseudo-first-order reaction conditions and the sensitivity of the respective assays sets the lowest limit level of inhibitor tested at 10 nM for kallikrein inhibitors and 5 nM for thrombin inhibitors.
A stock solution of thrombin was prepared in 0.010M PIPES Buffer, pH 6.0, containing 0.75 M sodium chloride. […] The initial concentration of substrate was 0.10 mM and the concentration of thrombin was 1.0 nM (based on weight).

[1] = Stability of Inhibitors in Human Plasma As Measured By APTT; type: in vitro ADME; conditions: for Clotting Time: 250 nM in APTT assay
Experimental: The stability of inhibitors in plasma was determined by their ability to inhibit blood coagulation. First, a stock solutions (1.0 μM) of the inhibitors to be tested in 25 mM HEPES buffer, pH 7.5, containing 0.10 M sodium chloride were diluted 50% with normal human plasma. The mixtures were made at 0°, then aliquots (0.200 mL) were removed and incubated for 2 min at 37°. An equal volume of automated APTT reagent was added and clotting times were measured as described in Examples 111-117. The final concentration of inhibitor during the clotting assays was 250 nM. Values for compounds E and F were determined simultaneously with the Control. Values for compounds A, B and C were obtained on a different day.

normal human plasma [2] = test: Prothrombin times (PT), blood coagulation in vitro; type: biochemical; conditions: for Calc. Concentration 2 × XPT: approximate concentration required to increase PT two fold
Experimental: (§2) The effectiveness of inhibitors in reactions in which they compete with natural substrates for target enzymes is measured in vitro in blood coagulation assays. Two different assays are used, the APTT (activated partial thromboplastin times) and PT (prothrombin times) assays. These assays mimic the blood clotting process in vivo. Blood coagulation occurs through either of two pathways, each consisting of a cascades of zymogen activation steps. The pathways are termed the intrinsic and the extrinsic pathways (see L. Lorand, Methods in Enzymology 45: 31-37 (1976). The intrinsic pathway is initiated by negatively charged surfaces in which plasma kallikrein, factor XII and factor […] are activated and then factors IX and X and prothrombin are activated in calcium dependent steps. Thrombin, the last protease in the cascade, hydrolyses fibrinogen to fibrin which results in clot formation. In the APTT assay, plasma components are activated by exposure to negatively charged surfaces and then clotting times are measured after calcium is added to the system. In the extrinsic pathway, tissue thromboplastin activates factor VII which then activates factor X leading to the activation of thrombin. These events are measured in the prothrombin times assay.
For PT assays, inhibitor solutions (0.100 mL) were incubated with normal human plasma (0.100 mL) for 2 min at 37°.

[3] = Stability of Inhibitors in Buffer (thrombin assay); conditions: for stability in phosphate buffer at pH 7.5 (inhibitory activity): phosphate buffer pH 7.5; for Percent Thrombin activity: 1.0 μM
Experimental: Samples of the inhibitors are removed at increasing time intervals and their ability to delay clotting is measured at each interval.
Inhibitors, each at a concentration of 1.0 μM, were incubated at room temperature in 0.20 M sodium phosphate buffer, pH 7.5, containing 0.20 M sodium chloride and 0.10% PEG.

Sprague Dawley CD Rats = test: In Vivo Inhibition of Croton Oil Induced Inflammation (ear swelling)
Experimental: Two solutions were prepared, the first consisting of 5% croton oil, a known inflammatory agent, in an acetone carrier (Croton Solution) and the second consisting of 5% croton oil in an acetone carrier to which 10 mg/mL of a compound of the invention was added (Compound Solution). The Croton Solution (10 μL), or alternatively the Compound Solution (10 μL), was applied to the right ear of each animal (Sprague Dawley CD Rats, 130-140 g, supplied by Charles River Labs, Inc., Wilmington, MA). […] "SE" denotes standard error.

normal human plasma [4] = test: Activated partial thromboplastin times (APTT), blood coagulation in vitro; type: biochemical; conditions: for Calc. Concentration 2 × APTT: approximate concentration required to increase APTT two fold
Experimental: as §2
The effect of protease inhibitors on blood coagulation in vitro was determined by measuring their effects on two different clinical parameters, the activated partial thromboplastin times (APTT) and prothrombin times (PT). Reagents for each of these assays were supplied by General Diagnostics, Jessup MD. Stock solutions of inhibitors were prepared in […] HEPES buffer, pH 7.5, containing 0.10 M sodium chloride. For the APTT assay, the inhibitor solution (0.100 mL) was incubated with normal human plasma (0.100 mL) and automated APTT reagent (0.100 mL). After incubation for 5.0 min at 37°, calcium chloride (0.100 mL) was added and the clotting times, measured in seconds, was determined on a fibrameter. The effects of the varying concentrations of inhibitor on blood clotting times compared with the clotting times of controls run in the absence of inhibitor, are shown in Table 3.

Human plasma kallikrein = target: T2, Human plasma kallikrein (Homo sapiens, UniProt P03952); test: Inhibition of Human Plasma Kallikrein; type: biochemical; conditions: inhibitor 10 nM; activity remaining 10 to 20 min after initiation
T2 construct: purchased Protogen AG (Switzerland)
T2 sequence (P03952 391-638 limits assumed): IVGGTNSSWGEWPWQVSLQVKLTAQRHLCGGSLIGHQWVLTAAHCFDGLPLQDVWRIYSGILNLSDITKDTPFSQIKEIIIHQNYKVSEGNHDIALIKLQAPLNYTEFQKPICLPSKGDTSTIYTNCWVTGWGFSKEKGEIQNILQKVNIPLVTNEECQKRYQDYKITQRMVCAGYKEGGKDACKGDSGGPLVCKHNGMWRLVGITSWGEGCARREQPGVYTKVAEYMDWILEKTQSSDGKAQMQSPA
T2 sequence (P03952 20-390 partner limits assumed): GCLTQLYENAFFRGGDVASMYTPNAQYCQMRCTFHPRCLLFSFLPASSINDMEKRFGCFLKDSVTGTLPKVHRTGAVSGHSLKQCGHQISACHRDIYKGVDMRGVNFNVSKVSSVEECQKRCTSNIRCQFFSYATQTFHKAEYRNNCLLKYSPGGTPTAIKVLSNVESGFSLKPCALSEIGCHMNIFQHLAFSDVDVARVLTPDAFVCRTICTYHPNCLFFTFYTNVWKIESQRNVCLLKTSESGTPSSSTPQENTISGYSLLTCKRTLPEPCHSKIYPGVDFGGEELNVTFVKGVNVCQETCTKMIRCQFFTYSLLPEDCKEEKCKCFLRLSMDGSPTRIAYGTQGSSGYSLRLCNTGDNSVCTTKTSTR
Experimental: as §1
Human plasma kallikrein was obtained from Protogen AG (Switzerland). The specific activity as described by the supplier is 15 units per mg. A unit is defined as the quantity of enzyme required to hydrolyze 1 μmole of substrate, H-(D)Pro-Phe-Arg-p-nitroanilide (Kabi S2302), per min at a substrate concentration of 0.50 mM at 25° in 50 mM potassium phosphate buffer, pH 8.0.

[5] = incubation in human plasma 0.5 h
[6] = incubation in human plasma 24 h
[7] = Table 14, dose=100 μg, essentially the same conditions
[8] = incubation in human plasma 48 h

Row | Compound | Percent Activity (Human thrombin; inhibitor 5 nM) | Clotting Time ([1]; incubation in human plasma 0 h) | Clotting Time [1, 5] | Clotting Time ([1]; incubation in human plasma 1 h) | Clotting Time ([1]; incubation in human plasma 2 h) | Clotting Time ([1]; incubation in human plasma 4 h) | Clotting Time [1, 6] | Calc. Concentration 2 × XPT (normal human plasma [2]) | Prothrombin Times (normal human plasma [2]; inhibitor 12.5 nM) | Prothrombin Times (normal human plasma [2]; inhibitor 250 nM) | Prothrombin Times (normal human plasma [2]; inhibitor 500 nM) | Prothrombin Times (normal human plasma [2]; inhibitor 750 nM) | Prothrombin Times (normal human plasma [2]; inhibitor 1000 nM) | stability in phosphate buffer at pH 7.5 (inhibitory activity) [3] | Percent Inhibition (Sprague Dawley CD Rats; [7]) | Calc. Concentration 2 × APTT (normal human plasma [4]) | Activated Partial Thromboplastin Times (normal human plasma [4]; inhibitor 125 nM) | Activated Partial Thromboplastin Times (normal human plasma [4]; inhibitor 200 nM) | Activated Partial Thromboplastin Times (normal human plasma [4]; inhibitor 350 nM) | Percent Activity (Human plasma kallikrein) | also measured
1 | Br.CC(C)(C)OC(=O)NC(Cc1ccccc1)C(=O)N1CCCC1C(=O)NC(CCCSC(=N)N)B1OC2CC3CC(C3(C)C)C2(C)O1 (stereo not drawn) [C, Boc-(D)Phe-Pro-boroIrg-C10 H16.HBr] | 3% | 203.2 s | 207.2 s | 214.2 s | 203.7 s | 209.7 s | 248.7 s | 650 nM | 16.8 s | 20.8 s | 27.2 s | 44 s | 152.7 s | little loss of inhibitor activity | 76% | 200 nM | 46.9 s | 67 s | 301.8 s |  | Activated Partial Thromboplastin Times (normal human plasma [4]; inhibitor 62.5 nM): 39.2 s; Activated Partial Thromboplastin Times (normal human plasma [4]; inhibitor 250 nM): 160 s; Activated Partial Thromboplastin Times (normal human plasma [4]; inhibitor 300 nM): 197.8 s
2 | CC(C)(C)OC(=O)N[C@H](Cc1ccccc1)C(=O)N[C@@H](Cc1ccccc1)C(=O)N[C@@H](CCCNC(=N)N)B1OC2CC3CC(C3(C)C)C2(C)O1.O=S(=O)(O)c1ccccc1 (stereo partly drawn) [E, Boc-(D)Phe-Phe-boroArg-C10 H16.benzene sulfonic acid] |  | 63.2 s | 73.2 s | 66.2 s | 67.7 s | 58.2 s | 64.7 s | 2600 nM |  |  | 19.8 s | 22 s | 29.3 s |  | 82% | 375 nM | 40.5 s | 43.6 s | 54.8 s | 5.2% | Percent Activity (Human thrombin; inhibitor 10 nM): 32%; Clotting Time ([1]; incubation in human plasma 3 h): 61.7 s; Clotting Time ([1]; incubation in human plasma 5 h): 61.3 s; Clotting Time ([1]; incubation in human plasma 6 h): 57.3 s; Clotting Time [1, 8]: 58.7 s; Prothrombin Times (normal human plasma [2]; inhibitor 2000 nM): 39 s; Prothrombin Times (normal human plasma [2]; inhibitor 4000 nM): 70.8 s; Activated Partial Thromboplastin Times (normal human plasma [4]; inhibitor 50 nM): 36.8 s; Activated Partial Thromboplastin Times (normal human plasma [4]; inhibitor 275 nM): 52.8 s; Activated Partial Thromboplastin Times (normal human plasma [4]; inhibitor 550 nM): 61.3 s
3 | CC(=O)NC(Cc1ccccc1)C(=O)NC(CCCNC(=N)N)B1OC2CC3CC(C3(C)C)C2(C)O1.Cl (stereo not drawn) [Compound F, Ac-Phe-boroArg-C10 H16.HCl] |  | 76.3 s | 76.4 s | 76.7 s | 79.6 s | 81.8 s | 73.9 s | 2500 nM |  |  |  |  | 16.2 s |  |  | 325 nM | 35.2 s | 36.7 s | 58.2 s | 48% | Percent Activity (Human thrombin; inhibitor 1000 nM): 53%; Clotting Time ([1]; incubation in human plasma 3 h): 77.8 s; Clotting Time ([1]; incubation in human plasma 5 h): 80.8 s; Clotting Time ([1]; incubation in human plasma 6 h): 79.3 s; Clotting Time [1, 8]: 49.3 s; Prothrombin Times (normal human plasma [2]; inhibitor 2000 nM): 20.8 s; Prothrombin Times (normal human plasma [2]; inhibitor 4000 nM): 51.5 s; Mean Right ear Wt. (Sprague Dawley CD Rats; 100 μg/ear with 5% croton oil, topical, 1 h): 18.9 mg; Mean Swelling (mg ± SE) (Sprague Dawley CD Rats; 100 μg/ear with 5% croton oil, topical, 1 h, right minus left ear weight): 2.3 ± 0.7 mg; Percent Inhibition (Sprague Dawley CD Rats; Table 13, 100 μg/ear with 5% croton oil, topical, 1 h): 79%; Activated Partial Thromboplastin Times (normal human plasma [4]; inhibitor 50 nM): 35 s; Activated Partial Thromboplastin Times (normal human plasma [4]; inhibitor 275 nM): 44.8 s; Activated Partial Thromboplastin Times (normal human plasma [4]; inhibitor 550 nM): 144.2 s
4 | CC1(C)C2CC3OB(C(CCCN=C(N)N)NC(=O)C4CCCN4C(=O)C(N)Cc4ccccc4)OC3(C)C1C2.Cl.Cl (stereo not drawn) [B, H-(D)Phe-Pro-boroArg-C10 H16.2HCl] | 7% | 152.2 s | 157.7 s | 163.7 s | 152.8 s | 157.7 s | 109.3 s | 460 nM | 20.1 s | 22.5 s | 33.8 s | 85.3 s | > 250 s | loses its biological activity over a period of an hour |  | 170 nM | 44.2 s | 71.5 s | 249.7 s | 61% | stability in human plasma (inhibitor activity by clotting time) ([1]; incubation with plasma): lost activity after 24 h; Prothrombin Times (normal human plasma [2]; inhibitor 625 nM): 46.5 s; Percent Thrombin activity ([3]; 0 hr in 0.20 M sodium phosphate buffer pH 7.5, room temperature): 2.0%; Percent Thrombin activity ([3]; 0.5 hr in 0.20 M sodium phosphate buffer pH 7.5, room temperature): 15%; Percent Thrombin activity ([3]; 1 hr in 0.20 M sodium phosphate buffer pH 7.5, room temperature): 100%; stability in phosphate buffer at pH 7.5 (inhibitory activity) ([3]; listed as H-(D)Phe-Pro-boroArg-C10 H16): lost inhibitory activity within one hour; Activated Partial Thromboplastin Times (normal human plasma [4]; inhibitor 62.5 nM): 36.5 s; Activated Partial Thromboplastin Times (normal human plasma [4]; inhibitor 250 nM): 158.7 s; Activated Partial Thromboplastin Times (normal human plasma [4]; inhibitor 300 nM): 169.7 s
